Data: ChEMBL document CHEMBL4002623, “Synthesis and in vitro activity of dicationic indolyl diphenyl ethers as novel potent antibiotic agents against drug-resistant bacteria” (Bioorg Med Chem Lett, 2017)
In brackets after ≈: the same amount, converted by molar mass.

Tests used:
[1] = system: Enterococcus faecium; test: Antibacterial activity against vancomycin-resistant Enterococcus faecium ATCC 700221 by agar dilution method; assay type: functional
[2] = system: Providencia rettgeri; test: Antibacterial activity against Providencia rettgeri ATCC 31052 by agar dilution method; assay type: functional
[3] = system: Klebsiella pneumoniae; test: Antibacterial activity against extended-spectrum beta-lactamase-positive Klebsiella pneumoniae 09-25 by agar dilution method; assay type: functional
[4] = system: Serratia marcescens; test: Antibacterial activity against Serratia marcescens 41002 by agar dilution method; assay type: functional
[5] = system: Enterococcus faecalis; test: Potency index, ratio of vancomycin MIC to test compound MIC for vancomycin-resistant Enterococcus faecalis 09-9; assay type: functional
[6] = system: Enterococcus faecalis; test: Antibacterial activity against vancomycin-sensitive Enterococcus faecalis 09-8 by agar dilution method; assay type: functional
[7] = system: Pseudomonas aeruginosa; test: Antibacterial activity against Pseudomonas aeruginosa PAO1 by agar dilution method; assay type: functional
[8] = system: Escherichia coli; test: Antibacterial activity against extended-spectrum beta-lactamase-negative Escherichia coli 1515 by agar dilution method; assay type: functional
[9] = system: Enterobacter cloacae; test: Antibacterial activity against Enterobacter cloacae 45301 by agar dilution method; assay type: functional
[10] = system: Morganella morganii; test: Antibacterial activity against Morganella morganii ATCC 25830 by agar dilution method; assay type: functional
[11] = system: Enterococcus faecalis; test: Antibacterial activity against vancomycin-resistant Enterococcus faecalis ATCC 51299 by agar dilution method; assay type: functional
[12] = system: Staphylococcus aureus; test: Potency index, ratio of vancomycin MIC to test compound MIC for methicillin-resistant Staphylococcus aureus 09-13; assay type: functional
[13] = system: Klebsiella pneumoniae; test: Antibacterial activity against extended-spectrum beta-lactamase-positive Klebsiella pneumoniae ATCC 700603 by agar dilution method; assay type: functional
[14] = system: Klebsiella aerogenes; test: Antibacterial activity against Enterobacter aerogenes 45102 by agar dilution method; assay type: functional
[15] = system: Klebsiella pneumoniae; test: Antibacterial activity against extended-spectrum beta-lactamase-negative Klebsiella pneumoniae 09-8 by agar dilution method; assay type: functional
[16] = system: Salmonella typhi; test: Antibacterial activity against Salmonella typhi H901 by agar dilution method; assay type: functional, Salmonella enterica subsp. enterica serovar Typhi; conditions: Salmonella enterica
[17] = system: Pseudomonas aeruginosa; test: Antibacterial activity against Pseudomonas aeruginosa ATCC 27853 by agar dilution method; assay type: functional
[18] = system: Staphylococcus epidermidis; test: Antibacterial activity against methicillin-sensitive Staphylococcus epidermidis 09-9 by agar dilution method; assay type: functional
[19] = system: Proteus mirabilis; test: Antibacterial activity against Proteus mirabilis 09-1 by agar dilution method; assay type: functional
[20] = system: Staphylococcus epidermidis; test: Potency index, ratio of levofloxacin MIC to test compound MIC for methicillin-resistant Staphylococcus epidermidis 09-3; assay type: functional
[21] = system: Pseudomonas aeruginosa; test: Antibacterial activity against Pseudomonas aeruginosa 09-14 by agar dilution method; assay type: functional
[22] = system: Enterococcus faecalis; test: Antibacterial activity against vancomycin-resistant Enterococcus faecalis 09-9 by agar dilution method; assay type: functional
[23] = system: Enterococcus faecium; test: Antibacterial activity against vancomycin-resistant Enterococcus faecium 05-8 by agar dilution method; assay type: functional
[24] = system: Staphylococcus aureus; test: Potency index, ratio of levofloxacin MIC to test compound MIC for methicillin-resistant Staphylococcus aureus 09-13; assay type: functional
[25] = system: Staphylococcus aureus; test: Antibacterial activity against methicillin-resistant Staphylococcus aureus 09-13 by agar dilution method; assay type: functional
[26] = Cytotoxicity against HEK293T cells after 48 hrs by MTS assay; assay type: cell-based, HEK-293T; conditions: human
[27] = system: Escherichia coli; test: Antibacterial activity against extended-spectrum beta-lactamase-negative Escherichia coli ATCC 25922 by agar dilution method; assay type: functional
[28] = system: Staphylococcus epidermidis; test: Potency index, ratio of vancomycin MIC to test compound MIC for methicillin-resistant Staphylococcus epidermidis 09-3; assay type: functional
[29] = system: Staphylococcus aureus; test: Antibacterial activity against methicillin-resistant Staphylococcus aureus ATCC 33591 by agar dilution method; assay type: functional
[30] = system: Klebsiella pneumoniae; test: Antibacterial activity against Klebsiella pneumoniae ATCC BAA-2146 expressing NDM-1 by agar dilution method; assay type: functional
[31] = system: Klebsiella pneumoniae; test: Antibacterial activity against extended-spectrum beta-lactamase-negative Klebsiella pneumoniae 7 by agar dilution method; assay type: functional
[32] = system: Enterococcus faecium; test: Antibacterial activity against vancomycin-sensitive Enterococcus faecium 09-10 by agar dilution method; assay type: functional
[33] = system: Staphylococcus epidermidis; test: Antibacterial activity against methicillin-resistant Staphylococcus epidermidis 09-3 by agar dilution method; assay type: functional
[34] = system: Staphylococcus aureus; test: Antibacterial activity against methicillin-sensitive Staphylococcus aureus ATCC 29213 by agar dilution method; assay type: functional
[35] = system: Citrobacter freundii; test: Antibacterial activity against Citrobacter freundii ATCC 43864 by agar dilution method; assay type: functional
[36] = system: Enterococcus faecium; test: Potency index, ratio of vancomycin MIC to test compound MIC for vancomycin-resistant Enterococcus faecium ATCC 700221; assay type: functional
[37] = system: Acinetobacter calcoaceticus; test: Antibacterial activity against Acinetobacter calcoaceticus ATCC 19606 by agar dilution method; assay type: functional
[38] = system: Staphylococcus aureus; test: Antibacterial activity against methicillin-sensitive Staphylococcus aureus 15 by agar dilution method; assay type: functional
[39] = system: Enterococcus faecalis; test: Antibacterial activity against vancomycin-sensitive Enterococcus faecalis ATCC 29212 by agar dilution method; assay type: functional
[40] = system: Staphylococcus epidermidis; test: Antibacterial activity against methicillin-sensitive Staphylococcus epidermidis ATCC 12228 by agar dilution method; assay type: functional
[41] = system: Proteus vulgaris; test: Antibacterial activity against Proteus vulgaris ATCC 29905 by agar dilution method; assay type: functional
[42] = system: Escherichia coli; test: Antibacterial activity against extended-spectrum beta-lactamase-positive Escherichia coli 09-1 by agar dilution method; assay type: functional
[43] = system: Staphylococcus aureus; test: Antibacterial activity against methicillin-sensitive Staphylococcus aureus 09-6 by agar dilution method; assay type: functional
[44] = system: Escherichia coli; test: Antibacterial activity against extended-spectrum beta-lactamase-negative Escherichia coli 09-20 by agar dilution method; assay type: functional

With CNC(=N)c1ccc2cc(-c3ccc(Oc4ccc(-c5cc6ccc(C(=N)NC)cc6[nH]5)cc4)cc3)[nH]c2c1 the MIC [1] was 0.5 µg/mL (≈ 0.975 µM), the MIC [2] was > 128 µg/mL and the MIC [3] was > 128 µg/mL. For the same molecule, the MIC [4] was > 128 µg/mL, the Ratio [5] was 128 - 256 and the MIC [6] was 1 µg/mL (≈ 1.95 µM). The MIC [7] was > 128 µg/mL, the MIC [8] was 128 µg/mL (≈ 250 µM) and the MIC [9] was > 128 µg/mL. The MIC [10] was 128 µg/mL (≈ 250 µM), the MIC [11] was 1 µg/mL (≈ 1.95 µM) and the Ratio [12] was 4 - 8. The MIC [13] was > 128 µg/mL, the MIC [14] was > 128 µg/mL and the MIC [15] was > 128 µg/mL. The MIC [16] was 128 µg/mL (≈ 250 µM), the MIC [17] was > 128 µg/mL and the MIC [18] was 1 µg/mL (≈ 1.95 µM). The MIC [19] was > 128 µg/mL, the Ratio [20] was 16 - 32 and the MIC [21] was > 128 µg/mL. For the same molecule, the MIC [22] was 1 µg/mL (≈ 1.95 µM), the MIC [23] was 2 µg/mL (≈ 3.9 µM) and the Ratio [24] was 16 - 32. For the same molecule, the MIC [25] was 0.5 µg/mL (≈ 0.975 µM), the CC50 at 48 h [26] was 12.2 µg/mL (≈ 23.8 µM) and the MIC [27] was 128 µg/mL (≈ 250 µM). The Ratio [28] was 4 - 8, the MIC [29] was 1 µg/mL (≈ 1.95 µM) and the MIC [30] was > 128 µg/mL. For the same molecule, the MIC [31] was > 128 µg/mL, the MIC [32] was 1 µg/mL (≈ 1.95 µM) and the MIC [33] was 0.5 µg/mL (≈ 0.975 µM). For the same molecule, the MIC [34] was 1 µg/mL (≈ 1.95 µM), the MIC [35] was > 128 µg/mL and the Ratio [36] was 128 - 256. The MIC [37] was > 128 µg/mL, the MIC [38] was 1 µg/mL (≈ 1.95 µM) and the MIC [39] was 1 µg/mL (≈ 1.95 µM). For the same molecule, the MIC [40] was 0.25 µg/mL (≈ 0.488 µM), the MIC [41] was > 128 µg/mL and the MIC [42] was 128 µg/mL (≈ 250 µM). For the same molecule, the MIC [43] was 1 µg/mL (≈ 1.95 µM) and the MIC [44] was > 128 µg/mL.
